Reference: patent publication US7759366B2 (Sanofi-Aventis, priority 2006, dated 2010)
Counter-ions that a name gives are not always drawn. Like-named read-outs stand apart in the source and are kept apart here.

Columns and labels:
hCB2R = hCB2R (Homo sapiens, UniProt P34972); test: In vitro functional assay (FLIPR, intracellular Ca2+) with recombinant HEK293 cells, CB2;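 note: intracellular Ca2+ was tracked with the fluorescent dye Fluo-4 loaded into the cells before test substance addition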
Experimental: Function-testing assays were performed by means of the FLIPR technique (“Fluorometric Imaging Plate Reader”, Molecular Devices Corp.).
To this end, ligand-induced changes in the intracellular concentration of Ca^2+ in recombinant HEK293 cells, which expressed both a cannabinoid receptor (CB1 or CB2) and G-protein Galpha16, were determined. For the studies, cells were sown into 96-well microtiter plates (60 000 cells/well) and left to grow overnight. The medium was removed and the cells were incubated in buffer which contained the fluorescent dye Fluo-4. After this loading with dye, the cells were washed, test substance was added dissolved in buffer, the mixture was incubated for 20 minutes, a known cannabinoid receptor agonist as a reference agonist was added in buffer and, finally, the changes in the intracellular Ca^2+ concentration were measured in the FLIPR unit.

hCB1R [1] = target: T1, hCB1R (Homo sapiens, UniProt P21554); test: Binding to the CB1 receptor ([3H]-SR141716A displacement)
Procedure, shortened: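 [3H]-SR141716A displacement at hCB1R; test compounds at final 10 μM to 0.005 μM in assay buffer with 1% DMSO, duplicate determinations. Low control 1 μM AM 251, high control binding without compound; IC50 from curve fit, converted to Ki via Cheng-Prusoff using Kd.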

hCB1R [2] = target: T1, hCB1R; test: In vitro functional assay (FLIPR, intracellular Ca2+) with recombinant HEK293 cells, CB1; format: cell-based; set-up: expressed in transfected cells; host or cells: HEK293
Source text: In Vitro Functional Assays with Recombinant Cells:

[3] = read-out: hCB2R: FLIPR, IC50, recombinant HEK293 cells expressing CB2 and Galpha16, 20 min preincubation, then reference agonist, Ca2+ change
[4] = CHO-K1/cannabinoid CB1 protein 2 μg/well, [3H]-SR141716A 0.5 nM, Ki from IC50 by Cheng-Prusoff, average of double determination, read-out: hCB1R, binding Ki

T1 sequence (P21554 whole entry): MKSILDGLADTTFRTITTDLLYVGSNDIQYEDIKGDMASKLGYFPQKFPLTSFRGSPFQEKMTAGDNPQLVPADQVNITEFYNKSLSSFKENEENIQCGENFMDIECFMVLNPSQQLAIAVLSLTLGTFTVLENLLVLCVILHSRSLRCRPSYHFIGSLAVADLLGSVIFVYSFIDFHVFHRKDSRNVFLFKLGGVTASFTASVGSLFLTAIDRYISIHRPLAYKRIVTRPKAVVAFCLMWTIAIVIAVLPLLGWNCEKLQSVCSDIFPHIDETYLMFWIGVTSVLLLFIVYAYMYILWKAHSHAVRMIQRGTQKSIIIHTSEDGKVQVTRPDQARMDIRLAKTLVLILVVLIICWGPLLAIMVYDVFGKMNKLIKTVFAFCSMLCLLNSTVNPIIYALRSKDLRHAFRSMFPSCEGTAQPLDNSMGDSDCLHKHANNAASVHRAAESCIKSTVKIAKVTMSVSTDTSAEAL
Chain of hCB2R (P34972 whole entry): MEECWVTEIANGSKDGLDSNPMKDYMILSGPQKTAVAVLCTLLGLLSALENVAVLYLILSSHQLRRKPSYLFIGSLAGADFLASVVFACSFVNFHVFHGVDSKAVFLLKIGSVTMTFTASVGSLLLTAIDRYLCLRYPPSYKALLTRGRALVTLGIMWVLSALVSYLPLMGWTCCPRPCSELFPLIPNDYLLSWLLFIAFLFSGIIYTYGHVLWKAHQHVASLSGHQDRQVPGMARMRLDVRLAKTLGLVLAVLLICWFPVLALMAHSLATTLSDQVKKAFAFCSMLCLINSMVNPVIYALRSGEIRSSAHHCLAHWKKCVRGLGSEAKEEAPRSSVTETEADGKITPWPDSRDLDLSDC

CC1(C)C(=O)N(c2ccc(C#N)c(C(F)(F)F)c2)C(=O)N1Cc1ccccc1Nc1ccccc1 [Example 1, 4-[4,4-Dimethyl-2,5-dioxo-3-(2-phenylaminobenzyl)imidazolidin-1-yl]-2-trifluoromethylbenzonitrile]
IC50 (hCB2R; [3]): > 10000 nM
Ki (hCB1R [1]): 13 nM
IC50 (hCB1R [2]): 10 nM

CC1(C)C(=O)N(c2ccnc(C(F)(F)F)c2)C(=O)N1Cc1ccccc1Nc1ccc(F)cc1F [Example 66, 1-[2-(2,4-difluorophenylamino)benzyl]-5,5-dimethyl-3-(2-trifluoromethylpyridin-4-yl)imidazolidine-2,4-dione]
IC50 (hCB2R): > 10000 nM
Ki (hCB1R [1]; [4]): 7 nM
IC50 (hCB1R [2]; recombinant HEK293 cells expressing CB1 and Galpha16, 20 min preincubation, then reference agonist, Ca2+ change, read-out: hCB1R: FLIPR, IC50): 25 nM

COC(=O)c1ccc(Nc2ccccc2CN2C(=O)N(c3ccc(C#N)c(C(F)(F)F)c3)C(=O)C2(C)C)cc1 [Example 60, methyl 4-{2-[3-(4-cyano-3-trifluoromethylphenyl)-5,5-dimethyl-2,4-dioxoimidazolidin-1-ylmethyl]phenylamino}benzoate]
IC50 (hCB2R; [3]): > 10000 nM
Ki (hCB1R [1]): 1 nM
IC50 (hCB1R [2]): 2 nM

CC1(C)C(=O)N(c2ccc(C#N)c(C(F)(F)F)c2)C(=O)N1Cc1ccccc1Nc1ccc(C(F)(F)F)cc1 [Example 5, 4-{3-[2-(4-trifluoromethylphenylamino)benzyl]-4,4-dimethyl-2,5-dioxoimidazolidin-1-yl}-2-trifluoromethylbenzonitrile]
IC50 (hCB2R; [3]): > 10000 nM
Ki (hCB1R [1]): 7 nM
IC50 (hCB1R [2]): 44 nM

CC1(C)C(=O)N(c2ccc(F)c(C(F)(F)F)c2)C(=O)N1Cc1ccccc1Nc1ccc(C(=N)N)cc1 [Example 144, 4-{2-[3-(4-Fluoro-3-trifluoromethylphenyl)-5,5-dimethyl-2,4-dioxoimidazolidin-1-ylmethyl]phenylamino}benzamidine hydrochloride]
IC50 (hCB2R): > 10000 nM
Ki (hCB1R [1]; [4]): 19 nM

COC(=O)c1ccc(Nc2ccccc2CN2C(=O)N(c3ccc(C#N)c(C(F)(F)F)c3)C(=O)C2(C)C)cc1OC [Example 140, methyl 4-{2-[3-(4-cyano-3-trifluoromethylphenyl)-5,5-dimethyl-2,4-dioxoimidazolidin-1-ylmethyl]phenylamino}-2-methoxybenzoate]
IC50 (hCB2R; [3]): > 10000 nM
Ki (hCB1R [1]): 26 nM

CC1(C)C(=O)N(c2ccc(C#N)c(C(F)(F)F)c2)C(=O)N1Cc1cccc(Cl)c1Nc1ccc(F)cc1F [Example 42, 4-{3-[5-chloro-6-(2,4-difluorophenylamino)benzyl]-4,4-dimethyl-2,5-dioxoimidazolidin-1-yl}-2-trifluoromethylbenzonitrile]
IC50 (hCB2R; [3]): > 10000 nM
Ki (hCB1R [1]): 1 nM
IC50 (hCB1R [2]): 12 nM

CC1(C)C(=O)N(c2ccc(C#N)c(C(F)(F)F)c2)C(=O)N1Cc1ccc(C(F)(F)F)cc1Nc1ccc(F)cc1F [Example 56, 4-{3-[2-(2,4-difluorophenylamino)-4-trifluoromethylbenzyl]-4,4-dimethyl-2,5-dioxoimidazolidin-1-yl}-2-trifluoromethylbenzonitrile]
IC50 (hCB2R; [3]): > 10000 nM
Ki (hCB1R [1]): 3 nM
IC50 (hCB1R [2]): 8 nM

COc1ccc(Nc2ccccc2CN2C(=O)N(c3ccc(C#N)c(C(F)(F)F)c3)C(=O)C2(C)C)cc1OC [Example 75, 4-{3-[2-(3,4-dimethoxyphenylamino)benzyl]-4,4-dimethyl-2,5-dioxoimidazolidin-1-yl}-2-trifluoromethylbenzonitrile]
IC50 (hCB2R; [3]): > 10000 nM
IC50 (hCB1R [2]): 49 nM

CC1(C)C(=O)N(c2ccc(C#N)c(C(F)(F)F)c2)C(=O)N1Cc1ccccc1Nc1ccc(C(=O)NC(CO)CO)cc1 [Example 137, 4-{2-[3-(4-cyano-3-trifluoromethylphenyl)-5,5-dimethyl-2,4-dioxoimidazolidin-1-ylmethyl]phenylamino}-N-(2-hydroxy-1-hydroxymethylethyl)benzamide]
IC50 (hCB2R; [3]): > 10000 nM
Ki (hCB1R [1]): 51 nM

CC1OC(=O)c2cc(Nc3ccccc3CN3C(=O)N(c4ccc(C#N)c(C(F)(F)F)c4)C(=O)C3(C)C)ccc2O1 (centres unmarked) [Example 142, 4-{4,4-dimethyl-3-[2-(2-methyl-4-oxo-4H-1,3-benzodioxin-6-ylamino)benzyl]-2,5-dioxoimidazolidin-1-yl}-2-trifluoromethylbenzonitrile]
IC50 (hCB2R; [3]): > 10000 nM
Ki (hCB1R [1]): 3 nM

CC1(C)C(=O)N(c2ccc(C#N)c(C(F)(F)F)c2)C(=O)N1Cc1ccccc1Nc1ccc(F)cc1F [Example 11, 4-{3-[2-(2,4-difluorophenylamino)benzyl]-4,4-dimethyl-2,5-dioxoimidazolidin-1-yl}-2-trifluoromethylbenzonitrile]
IC50 (hCB2R; [3]): > 10000 nM
Ki (hCB1R [1]): 1 nM
IC50 (hCB1R [2]): 0.7 nM

CC1(C)C(=O)N(c2ccc(C#N)c(C(F)(F)F)c2)C(=O)N1Cc1ccccc1Nc1ccc(CC(N)=O)cc1 [Example 97, 2-(4-{2-[3-(4-Cyano-3-trifluoromethylphenyl)-5,5-dimethyl-2,4-dioxoimidazolidin-1-ylmethyl]phenylamino}phenyl)acetamide]
IC50 (hCB2R; [3]): > 10000 nM
IC50 (hCB1R [2]): 7 nM

CCOC(=O)COc1ccc(Nc2ccccc2CN2C(=O)N(c3ccc(C#N)c(C(F)(F)F)c3)C(=O)C2(C)C)cc1 [Example 138, ethyl (4-{2-[3-(4-cyano-3-trifluoromethylphenyl)-5,5-dimethyl-2,4-dioxoimidazolidin-1-ylmethyl]phenylamino}phenoxy)acetate]
IC50 (hCB2R; [3]): > 10000 nM
IC50 (hCB1R [2]): 4 nM

CC(C)(C)c1cc(N2C(=O)N(Cc3ccccc3Nc3ccc(F)cc3F)C(C)(C)C2=O)ccc1C#N [Example 64, 2-tert-butyl-4-{3-[2-(2,4-difluorophenylamino)benzyl]-4,4-dimethyl-2,5-dioxoimidazolidin-1-yl}benzonitrile]
IC50 (hCB2R; [3]): > 10000 nM
Ki (hCB1R [1]): 5 nM
IC50 (hCB1R [2]): 16 nM

COc1ccc(Nc2ccccc2CN2C(=O)N(c3ccc(C#N)c(C(F)(F)F)c3)C(=O)C2(C)C)cc1 [Example 67, 4-{3-[2-(4-methoxyphenylamino)benzyl]-4,4-dimethyl-2,5-dioxoimidazolidin-1-yl}-2-trifluoromethylbenzonitrile]
IC50 (hCB2R; [3]): > 10000 nM
Ki (hCB1R [1]): 1 nM
IC50 (hCB1R [2]): 1 nM
